From the supplement of paper PMC12613149 come the findings set out here.

Series [1] is described as follows: collision cross section (TIMS, N2 drift gas) of the primary ion; higher = larger gas-phase ion size.
A short description of series [2]: reversed-phase LC retention time (C18, 15 min MeOH gradient); higher = more hydrophobic / later elution.
Where [3] appears, read: ionization mode: ESI+, ion species: [M+H]+.
[4] abbreviates: ionization mode: ESI-, ion species: [M-H]-.

Take `CC(C)C1(C)N=C(c2ncccc2C(=O)O)NC1=O` (stereo not given) [Imazapyr]: the collision cross section in series [1] (setting [3]) is given as 156.96 Å². The “reversed-phase LC retention time” value in series [2] (setting [3]) was 8.78 min.
`NC1=NCCN1Cc1ccc(Cl)nc1` [Imidacloprid-guanidine] returned a collision cross section in series [1] (setting [3]) of 148.89 Å². Also, the “reversed-phase LC retention time” value in series [2] (setting [3]) turned out to be 6.21 min.
Take `O=C1NCCN1Cc1ccc(Cl)nc1` [Imidacloprid-urea]: in series [1] (setting [3]), the collision cross section is listed as 143.26 Å². Further, the “reversed-phase LC retention time” value in series [2] (setting [3]) is 8.55 min.
On to `O=[N+]([O-])/N=C1\NCCN1Cc1ccc(Cl)nc1` [Imidacloprid], for which the collision cross section in series [1] (setting [3]) turned out to be 155.98 Å²; in series [1] (setting [4]), 157.08 Å². In addition, the “reversed-phase LC retention time” value in series [2] (setting [3]) came to 8.67 min; in series [2] (setting [4]), 8.7 min.
In series [1] (setting [4]), `O=Cc1c[nH]c2ccccc12` [Indole-3-carboxyaldehyde] returned a collision cross section of 122.39 Å². In addition, the “reversed-phase LC retention time” value in series [2] (setting [4]) amounted to 9.34 min.
On to `COc1ccc2c(c1)c(CC(=O)O)c(C)n2C(=O)c1ccc(Cl)cc1` [Indomethacin], for which the values for the collision cross section in series [1] (setting [3]) and in series [1] (setting [4]) were 182.58 Å² and 188.5 Å², respectively. The results for the “reversed-phase LC retention time” value in series [2] (setting [3]) and in series [2] (setting [4]) were 15.3 min and 13.8 min, respectively.
In series [1] (setting [3]), `COC(=O)N(C(=O)N1CO[C@@]2(C(=O)OC)Cc3cc(Cl)ccc3C2=N1)c1ccc(OC(F)(F)F)cc1` [Indoxacarb] yielded a collision cross section of 206.73 Å². Besides, the “reversed-phase LC retention time” value in series [2] (setting [3]) turned out to be 16.2 min.
Consider `CC(=O)N(CC(O)CO)c1c(I)c(C(=O)NCC(O)CO)c(I)c(C(=O)NCC(O)CO)c1I` (stereo not given) [Iohexol], for which the collision cross section in series [1] (setting [3]) came out at 226.32 Å²; in series [1] (setting [4]), 220.12 Å². For the same molecule, the “reversed-phase LC retention time” value in series [2] (setting [3]) was determined as 5.4 min; in series [2] (setting [4]), 5.47 min.
`CN(C(=O)CO)c1c(I)c(C(=O)NCC(O)CO)c(I)c(C(=O)NCC(O)CO)c1I` (stereo not given) [Iomeprol]: the collision cross section was found to be 216.41 Å² in series [1] (setting [3]) and 210.1 Å² in series [1] (setting [4]). Also, the “reversed-phase LC retention time” value in series [2] (setting [3]) stood at 5.52 min; in series [2] (setting [4]), 5.58 min.
Turning to `C[C@H](O)C(=O)Nc1c(I)c(C(=O)NC(CO)CO)c(I)c(C(=O)NC(CO)CO)c1I` [Iopamidol], the collision cross section in series [1] (setting [3]) is reported as 216.64 Å²; in series [1] (setting [4]) it was 206.33 Å². In addition, the entries for the “reversed-phase LC retention time” value in series [2] (setting [3]) and in series [2] (setting [4]) were 5.52 min and 3.71 min, respectively.
On to `COCC(=O)Nc1c(I)c(C(=O)NCC(O)CO)c(I)c(C(=O)N(C)CC(O)CO)c1I` (stereo not given) [Iopromide], for which the collision cross section came out at 215.51 Å² in series [1] (setting [3]) and 212.29 Å² in series [1] (setting [4]). The results for the “reversed-phase LC retention time” value in series [2] (setting [3]) and in series [2] (setting [4]) were 6.66 min and 6.74 min, respectively.
As for `CC(C)C1CCC(Cc2ccc(Cl)cc2)C1(O)Cn1cncn1` (stereo not given) [Ipconazole], the collision cross section in series [1] (setting [3]) was found to be 174.42 Å². Besides, the “reversed-phase LC retention time” value in series [2] (setting [3]) worked out at 16.4 min.
In the same order, the values of `CCC(Cc1ccccc1)(C(=O)c1ccc(N2CCOCC2)cc1)N(C)C` (stereo not given) [Irgacure 369] are 196.72 Å² and 11.3 min.
As to `CSc1nc(NC2CC2)nc(NC(C)(C)C)n1` [Irgarol], in series [1] (setting [3]), the collision cross section came to 163.17 Å². For the same molecule, the “reversed-phase LC retention time” value in series [2] (setting [3]) is 14.4 min.
In the same order, the values of `CC(C)C(=O)c1ccccc1` [Isobutyrophenone] are 128.32 Å² and 17.1 min.
The matching figures for `CC1(C)CC(N)CC(C)(CN)C1` (stereo not given) [Isophorone diamine]: 141.08 Å² and 1.84 min.
The matching figures for `CC(C)c1ccc(NC(=O)N(C)C)cc1` [Isoproturon]: 151.88 Å² and 13 min.
Consider `CC(C)C1C2CCC1c1c(NC(=O)c3cn(C)nc3C(F)F)cccc12` (stereo not given) [Isopyrazam], for which the results for the collision cross section in series [1] (setting [3]) and in series [1] (setting [4]) were 185.35 Å² and 191.1 Å², respectively. Moreover, the results for the “reversed-phase LC retention time” value in series [2] (setting [3]) and in series [2] (setting [4]) were 16.2 min and 16.6 min, respectively.
Consider `CCC(C)(CC)c1cc(NC(=O)c2c(OC)cccc2OC)on1` [Isoxaben], for which the collision cross section in series [1] (setting [3]) is given as 186.76 Å²; in series [1] (setting [4]) it was 186.45 Å². In addition, the “reversed-phase LC retention time” value was found to be 14.3 min in series [2] (setting [3]) and 14.7 min in series [2] (setting [4]).
Molecule `CC[C@H](C)[C@H]1O[C@]2(CC[C@@H]1C)C[C@@H]1C[C@@H](C/C=C(\C)[C@@H](O[C@H]3C[C@H](OC)[C@@H](O[C@H]4C[C@H](OC)[C@@H](O)[C@H](C)O4)[C@H](C)O3)[C@@H](C)/C=C/C=C3\CO[C@@H]4[C@H](O)C(C)=C[C@@H](C(=O)O1)[C@]34O)O2` [Ivermectin B1a] displayed a collision cross section in series [1] (setting [4]) of 292.22 Å². Moreover, the “reversed-phase LC retention time” value in series [2] (setting [4]) came out at 19.5 min.
With `CNC1(c2ccccc2Cl)CCCCC1=O` (stereo not given) [Ketamine], the collision cross section in series [1] (setting [3]) worked out at 149.17 Å². The “reversed-phase LC retention time” value in series [2] (setting [3]) is 8.79 min.
The matching figures for `CC(=O)N1CCN(c2ccc(OC[C@H]3CO[C@](Cn4ccnc4)(c4ccc(Cl)cc4Cl)O3)cc2)CC1` [Ketoconazole]: 216.99 Å² and 13.2 min.
